{
  "source": "patent US20230285380A1",
  "about": "“DUAL TREATMENT OF MIGRAINE” (priority 2021, published 2023)",
  "key": {"[1]": {"assay": "BHV3000-305 study: adverse events and liver safety on double-blind treatment"}, "[2]": {"system": "patients with episodic and chronic migraine", "assay": "BHV3000-305 Phase 2/3 randomized, double-blind, placebo-controlled study of rimegepant in migraine prevention (NCT03732638): efficacy", "format": "in vivo, human", "experimental": "Clinical Trial—BHV3000-305: A Phase ⅔, Randomized, Double-blind, Placebo-controlled Study to Evaluate the Efficacy and Safety of Rimegepant in Migraine Prevention (ClinicalTrials.gov Identifier: NCT03732638).\nA phase ⅔ clinical study was conducted with 1629 participants, as follows.\nThe purpose of this is study is to compare the efficacy of BHV-3000 (rimegepant) to placebo as a preventive treatment for migraine, as measured by the reduction in the number of migraine days per month.\nStudy Design • Study Type: Interventional (Clinical Trial) • Actual Enrollment: 1629 participants • Allocation: Randomized • Intervention Model: Parallel Assignment • Masking: Triple (Participant, Care Provider, Investigator) • Primary Purpose: Prevention • Official Title: A Phase ⅔, Randomized, Double-blind, Placebo-controlled Study to Evaluate the Efficacy and Safety of Rimegepant in Migraine Prevention • Actual Study Start Date: Nov. 14, 2018 • Actual Primary Completion Date: Dec. 10, 2019 • Estimated Study Completion Jan. 30, 2021 • Date:\nPrimary Outcome Measures: • 1. Change from baseline in mean number of migraine days per month [Time Frame: Mean number of migraine days per month as assessed over 3 months (12 weeks)] Change from baseline in mean number of migraine days per month as measured over the 12-week double-blind phase of the study.\nSecondary Outcome Measures: • 1. Achievement of at least a 50% reduction from baseline in mean number of moderate to severe monthly migraine days. [Time Frame: baseline to end of Week 12] Achievement of at least a 50% reduction from baseline in mean number of moderate to severe monthly migraine days over course of the double-blind treatment phase. • 2. The mean number of rescue medication days per month. [Time Frame: baseline to end of week 12 as measure per month] The mean number of rescue medication days per month over the course of the double-blind, treatment phase. Rescue medications include the rescue medications defined in this protocol. • 3. Adverse events. [Time Frame: baseline to end of Week 12] Adverse events that occur in at least 5% of treated subjects; the frequency of unique subjects with serious adverse events, adverse events leading to discontinuation and clinically significant laboratory abnormalities, as reported on case report forms. • 4. The frequency of AST or ALT elevations. [Time Frame: baseline to end of Week 12] The frequency of AST or ALT elevations >3×ULN, concurrently with bilirubin elevations >2× ULN, will be assessed by tabulating the number of unique subjects with this pairing of events. • 5. The frequency of hepatic-related adverse events and hepatic-related treatment. [Time Frame: baseline to end of Week 12] The frequency of hepatic-related adverse events and hepatic-related treatment discontinuations will be tabulated from case report forms and will be based on unique subjects reporting such events. • 6. The mean change from baseline in the MSQ role function [Time Frame: baseline to end of Week 12] The mean change from baseline in the MSQ role function—restrictive domain score at Week 12 of the double-blind treatment phase. • 7. The mean change from baseline in the MIDAS total score. [Time Frame: baseline to end of Week 12]\nThe mean change from baseline in the MIDAS total score at Week 12 of the double-blind treatment phase.\nThis pivotal study enrolled patients with both episodic and chronic migraine. The study evaluated the efficacy and safety of rimegepant 75 mg (n=370) dosed every other day for the preventive treatment of migraine in patients versus placebo (n=371) who had migraine for at least one year and 4 to 18 moderate to severe migraine attacks per month over three months prior to enrollment. During the one-month observation period, patients experienced on average 10.7 migraine days per month, with 7.4 migraine days of moderate to severe migraine during the same period."}, "[3]": {"system": "patients with moderate to severe intensity migraine", "assay": "large open-label Phase 2 trial of rimegepant", "format": "in vivo, human", "description": "The goal of our strategy is to deliver one medication to address patients' needs for treating their migraines."}, "[4]": {"settings": "370 patients, rimegepant 75 mg every other day"}, "[5]": {"settings": "Severity: Mild, Treated Subjects N = 370"}, "[6]": {"settings": "Severity: Moderate or Severe, Treated Subjects N = 370"}, "[7]": {"settings": "Severity: Moderate, Treated Subjects N = 370"}, "[8]": {"settings": "Severity: Total, Treated Subjects N = 370"}},
  "data": [
    {"compound": "N[C@@H]1c2cccnc2[C@H](OC(=O)N2CCC(n3c(=O)[nH]c4ncccc43)CC2)CC[C@H]1c1cccc(F)c1F", "note": "[Rimegepant, [(5S,6S,9R)-5-amino-6-(2,3-difluorophenyl)-6,7,8,9-tetrahydro-5H-cyclohepta[b]pyridin-9-yl] 4-(2-oxo-3H-imidazo[4,5-b]pyridin-1-yl)piperidine-1-carboxylate]", "values": [
      {"measurement": "cases of ALT or AST >3×ULN and bilirubin >2×ULN", "setting": "[1]; [4]", "result": "no cases"},
      {"measurement": "independent liver monitoring panel assessment of ALT/AST elevations", "setting": "[1]; [4]", "result": "did not determine any ALT/AST elevations to be in the categories of probably or definitely related to study drug"},
      {"measurement": "safety profile", "setting": "[1]; [4]", "result": "consistent with prior clinical trial experience"},
      {"measurement": "Enterobiasis", "setting": "[1]; [5]", "result": 0, "unit": "n"},
      {"measurement": "Folliculitis", "setting": "[1]; [5]", "result": 0, "unit": "n"},
      {"measurement": "Oral candidiasis", "setting": "[1]; [5]", "result": 0, "unit": "n"},
      {"measurement": "Orchitis", "setting": "[1]; [5]", "result": 0, "unit": "n"},
      {"measurement": "Otitis media", "setting": "[1]; [5]", "result": 0, "unit": "n"},
      {"measurement": "Acute sinusitis", "setting": "[1]; [6]", "result": 0, "unit": "n"},
      {"measurement": "Appendicitis", "setting": "[1]; [6]", "result": 0, "unit": "n"},
      {"measurement": "Bacterial vaginosis", "setting": "[1]; [6]", "result": 0, "unit": "n"},
      {"measurement": "Herpes zoster", "setting": "[1]; [6]", "result": 0, "unit": "n"},
      {"measurement": "Pharyngitis streptococcal", "setting": "[1]; [6]", "result": 0, "unit": "n"},
      {"measurement": "Pneumonia", "setting": "[1]; [6]", "result": 0, "unit": "n"},
      {"measurement": "Pyelonephritis", "setting": "[1]; [6]", "result": 0, "unit": "n"},
      {"measurement": "Sepsis", "setting": "[1]; [6]", "result": 0, "unit": "n"},
      {"measurement": "Acute sinusitis", "setting": "[1]; [7]", "result": 0, "unit": "n"},
      {"measurement": "Appendicitis", "setting": "[1]; [7]", "result": 0, "unit": "n"},
      {"measurement": "Bacterial vaginosis", "setting": "[1]; [7]", "result": 0, "unit": "n"},
      {"measurement": "Herpes zoster", "setting": "[1]; [7]", "result": 0, "unit": "n"},
      {"measurement": "Pharyngitis streptococcal", "setting": "[1]; [7]", "result": 0, "unit": "n"},
      {"measurement": "Sepsis", "setting": "[1]; [7]", "result": 0, "unit": "n"},
      {"measurement": "Acute sinusitis", "setting": "[1]; [8]", "result": 0, "unit": "n"},
      {"measurement": "Appendicitis", "setting": "[1]; [8]", "result": 0, "unit": "n"},
      {"measurement": "Enterobiasis", "setting": "[1]; [8]", "result": 0, "unit": "n"},
      {"measurement": "Folliculitis", "setting": "[1]; [8]", "result": 0, "unit": "n"},
      {"measurement": "Oral candidiasis", "setting": "[1]; [8]", "result": 0, "unit": "n"},
      {"measurement": "Orchitis", "setting": "[1]; [8]", "result": 0, "unit": "n"},
      {"measurement": "Otitis media", "setting": "[1]; [8]", "result": 0, "unit": "n"},
      {"measurement": "Pelvic inflammatory disease", "setting": "[1]; [8]", "result": 0, "unit": "n"},
      {"measurement": "Pertussis", "setting": "[1]; [8]", "result": 0, "unit": "n"},
      {"measurement": "Pharyngitis streptococcal", "setting": "[1]; [8]", "result": 0, "unit": "n"},
      {"measurement": "Pneumonia", "setting": "[1]; [8]", "result": 0, "unit": "n"},
      {"measurement": "Pyelonephritis", "setting": "[1]; [8]", "result": 0, "unit": "n"},
      {"measurement": "Sepsis", "setting": "[1]; [8]", "result": 0, "unit": "n"},
      {"measurement": "Tooth infection", "setting": "[1]; [8]", "result": 0, "unit": "n"},
      {"measurement": "MSQoL Restrictive Role Function Domain Score Change From Baseline at Week 12, Difference (Rimegepant − Placebo)", "setting": "[2]; 95% CI (0.23, 6.70), P-value 0.0358", "result": 3.5},
      {"measurement": ">=50% Reduction in Moderate or Severe Migraine Days per Month in Last Month, Stratified Risk Difference (Rimegepant − Placebo)", "setting": "[2]; 95% CI (−0.6, 14.1), P-value 0.0734", "result": 6.7},
      {"measurement": "Rescue Medication Days per Month in Last Month, Difference (Rimegepant − Placebo)", "setting": "[2]; 95% CI (−0.80, 0.31), P-value 0.3868", "result": "−0.2", "unit": "Days per Month"},
      {"measurement": "Change From OP in Mean Number of Total Migraine Days per Month Overall, Difference (Rimegepant − Placebo)", "setting": "[2]; 95% CI (−1.23, −0.17), P-value 0.0094", "result": "−0.7", "unit": "Days per Month"},
      {"measurement": "Change From OP in Mean Number of Total Migraine Days per Month in Last Month, Difference (Rimegepant − Placebo)", "setting": "[2]; 95% CI (−1.42, −0.14), P-value 0.0176, significant in hierarchical testing", "result": "−0.8", "unit": "Days per Month"},
      {"measurement": "Change From OP in Mean Number of Total Migraine Days per Month In First Month, Difference (Rimegepant − Placebo)", "setting": "[2]; 95% CI (−1.49, −0.36), P-value 0.0013", "result": "−0.9", "unit": "Days per Month"},
      {"measurement": "MIDAS Total Score Change From Baseline at Week 12, Difference (Rimegepant − Placebo)", "setting": "[2]; 95% CI (−4.74, 4.51), P-value 0.9616", "result": "−0.1"},
      {"measurement": ">=50% Reduction From OP in Mean Number of Moderate or Severe Migraine Days per Month in Last Month, Response Rate (n/N)", "setting": "[2]; evaluable mITT", "result": "167/348"},
      {"measurement": "Primary Endpoint: Change From OP in Mean Number of Total Migraine Days per Month in Last Month, Least-squares mean", "setting": "[2]; evaluable mITT N = 348, 75 mg every other day, 95% CI (−4.95, −3.97)", "result": "−4.5", "unit": "Days per Month"},
      {"measurement": "Rescue Medication Days per Month in Last Month, Least-squares mean", "setting": "[2]; evaluable mITT N = 348, 95% CI (3.29, 4.15)", "result": 3.7, "unit": "Days per Month"},
      {"measurement": "Change From OP in Mean Number of Total Migraine Days per Month In First Month, Least-squares mean", "setting": "[2]; evaluable mITT N = 348, 95% CI (−3.04, −2.17)", "result": "−2.6", "unit": "Days per Month"},
      {"measurement": "Change From OP in Mean Number of Total Migraine Days per Month Overall, Least-squares mean", "setting": "[2]; evaluable mITT N = 348, 95% CI (−3.94, −3.12)", "result": "−3.5", "unit": "Days per Month"},
      {"measurement": "MSQoL Restrictive Role Function Domain Score Change From Baseline at Week 12, Least-squares mean", "setting": "[2]; n 269, 95% CI (15.54, 20.56)", "result": 18.0},
      {"measurement": "MIDAS Total Score Change From Baseline at Week 12, Least-squares mean", "setting": "[2]; n 269, 95% CI (−15.41, −8.21)", "result": "−11.8"},
      {"measurement": "reduction in mean number of migraine days as compared to placebo, (4.9-3.7)/3.7*100", "setting": "[2]; participants not taking concomitant preventive treatment", "result": 32, "unit": "%"},
      {"measurement": "reduction from baseline in monthly migraine days", "setting": "[2]; rimegepant 75 mg every other day, vs 3.7 day in placebo group, p=0.0176", "result": 4.5, "unit": "days"},
      {"measurement": "reduction from baseline in monthly migraine days, participants not taking concomitant preventive treatment", "setting": "[2]; rimegepant group n=273, vs 3.7 day in placebo group (n=269)", "result": 4.9, "unit": "days"},
      {"measurement": ">=50% Reduction From OP in Mean Number of Moderate or Severe Migraine Days per Month in Last Month, Stratified Risk", "setting": "[2]; stratified by prophylactic migraine medication use, 95% CI (42.7, 53.2)", "result": 48.0},
      {"measurement": "share of group with at least a 50% reduction from baseline in the mean number of moderate to severe migraine days per month", "setting": "[2]; vs 41% in the placebo group", "result": 48, "unit": "%"},
      {"measurement": "reduction in migraine days per month", "setting": "[3]", "result": "≤ 5.3", "unit": "days"}
    ]}
  ]
}
